Test results taken from the SangsterLogP compilation.

Test: method code SF-HPLC, from DOI: 10.1080/10826079308019563
Conditions: pH 11.0

logD | SMILES
1.21 | CCOc1ccccc1N1CCN(CC2CN=C(N)O2)CC1 (stereo not given)
2.19 | Cc1cccc(N2CCN(CC3CN=C(N)O3)CC2)c1C (stereo not given)
1.87 | NC1=NCC(CN2CCN(c3ccccc3Cl)CC2)O1 (stereo not given)
2.4 | NC1=NCC(CN2CCN(c3ccc(Cl)c(Cl)c3)CC2)O1 (stereo not given)
0.48 | NC1=NCC(CN2CCN(c3ccccn3)CC2)O1 (stereo not given)
0.85 | NC1=NCC(CN2CCN(c3ccccc3)CC2)O1 (stereo not given)
1.83 | NC1=NCC(CN2CCN(c3cccc(Cl)c3)CC2)O1 (stereo not given)
2.21 | NC1=NCC(CN2CCN(c3cccc(C(F)(F)F)c3)CC2)O1 (stereo not given)
0.68 | COc1ccc(N2CCN(CC3CN=C(N)O3)CC2)cc1 (stereo not given)
1.23 | NC1=NCC(CN2CCN(c3ccc(C(F)(F)F)cc3)CC2)O1 (stereo not given)
1 | NC1=NCC(CN2CCN(c3ccc(F)cc3)CC2)O1 (stereo not given)
0.21 | NC1=NCC(CN2CCN(c3ncccn3)CC2)O1 (stereo not given)
0.87 | COc1cccc(N2CCN(CC3CN=C(N)O3)CC2)c1 (stereo not given)
0.76 | COc1ccccc1N1CCN(CC2CN=C(N)O2)CC1 (stereo not given)
1.71 | NC1=NCC(CN2CCN(c3ccc(Cl)cc3)CC2)O1 (stereo not given)
